System: tongue carcinoma cells (Cal27)
Test: clonogenic cell survival assay, Cal27
Assay type: cell-based, Human
Description: (§1) FIG. 4 is a plot showing the surviving fraction of Cal27 cells for increasing amounts of ascorbate, as determined by a clonogenic cell survival assay used to determine the effects of the compound alone and in combination with a pentaaza macrocyclic ring complex (GC4419). Human tongue carcinoma cells (Cal27) were exponentially grown in culture for 48 hours. The cells were then treated with 5-20 μM GC4419 for 24 hours, and ascorbate (Asc) for one hour, followed by immediate clonogenic assay. The cells were trypsinized, counted, replated at varying lower densities and incubated.
(§2) FIG. 6 is a graph showing the surviving fraction of Cal 27 cells treated with ascorbate and combinations with including ascorbate. The effects of ascorbic acid (AA) in combination with a pentaaza macrocyclic ring complex (GC4419) was tested in a clonogenic cell survival assay to determine the effects of the combination alone and when paired with ionizing radiation. Human tongue carcinoma cells (Cal27) were exponentially grown in culture for 48 hours. The cells were then treated with 5 μM GC4419 for 3 hours and 10 pmol/cell ascorbate for 1 hour, either alone, in combination (GC+AA), and/or paired with a dose of ionizing radiation (2 Gy). After the ionizing radiation dose, the cells were trypsinized, counted, replated at varying lower densities and incubated. Plates were stained and counted for clonogenic survival assays.
as §1, with “The effect” for “FIG. 4 is a plot showing the surviving fraction”, “ascorbate was tested in” for “Cal27 cells for increasing amounts of ascorbate, as determined by”, “assay” for “assay used”, “incubated. Plates were stained and counted for clonogenic survival assays.” for “incubated.”
as §2, with “The” for “FIG. 6 is a graph showing the surviving fraction of Cal 27 cells treated with ascorbate and combinations with including ascorbate. The”

## [Cl][Mn][Cl].c1cc2nc(c1)CN[C@H]1CCCC[C@@H]1NCCN[C@H]1CCCC[C@@H]1NC2 [GC4419]
5 μM GC4419 3 h + 10 pmol/cell ascorbate 1 h (GC+AA), FIG. 6
  synergistic activity of the combination: more than merely an additive effect
5 μM GC4419 3 h + 10 pmol/cell ascorbate 1 h (GC+AA), compared to control and to either alone, FIG. 6
  cell killing (clonogenic survival): significant enhancements in cell killing
GC+AA+IR (2 Gy) compared to IR 2Gy alone, FIG. 6
  sensitization to ionizing radiation: sensitized the cancer cells to radiation
Ascorbate 1 h in combination with 5, 10 or 20 μM GC4419 24 h, compared to monotherapies, FIG. 4
  cell killing (clonogenic survival): significant enhancements in cell killing
